Biological target: T1, PPARγ (Homo sapiens, UniProt P37231)
T1 construct: expression construct for the full-length human receptor under investigation; expressed in transfected cells; host or cells: human U2-OS cells (ATCC HTB-96), stably transfected
T1 sequence (P37231 1-505): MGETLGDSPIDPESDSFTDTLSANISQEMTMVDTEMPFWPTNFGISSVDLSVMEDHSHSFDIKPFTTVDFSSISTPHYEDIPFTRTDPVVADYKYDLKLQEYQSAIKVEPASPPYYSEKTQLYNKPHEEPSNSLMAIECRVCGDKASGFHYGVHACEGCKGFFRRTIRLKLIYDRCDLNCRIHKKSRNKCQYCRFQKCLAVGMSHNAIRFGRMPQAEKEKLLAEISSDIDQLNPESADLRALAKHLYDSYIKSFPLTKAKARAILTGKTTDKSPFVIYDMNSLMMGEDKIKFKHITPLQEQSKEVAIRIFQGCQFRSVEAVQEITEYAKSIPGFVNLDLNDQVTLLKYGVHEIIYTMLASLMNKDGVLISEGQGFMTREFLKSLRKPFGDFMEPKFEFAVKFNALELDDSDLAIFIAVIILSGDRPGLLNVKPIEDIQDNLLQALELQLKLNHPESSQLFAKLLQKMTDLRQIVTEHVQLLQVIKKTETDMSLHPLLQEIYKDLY
Test: PPARγ CALUX reporter gene assay
Type: cell-based
Parameters: key: –: no effect observed up to the highest test concentration
Details: PC10, 24 h exposure
From the text: 2-methylimidazole 99.0%, zinc(II) nitrate hexahydrate ≥99.0%, para-cymene 99.0%, 1,4-dioxane 99.8% (anhydrous), 4-nitroaniline ≥99.0%, 1-octanol ≥99.0%, diglyme ≥99.0%, DMSO-d6 (99.8% D) and chloroform-d (99.8% D) were purchased from Sigma-Aldrich. Toluene ≥99.0%, hexane ≥99.5%, DCM ≥99.5%, chloroform ≥99.5%, DMSO ≥99.0% were purchased from VWR. N,N-diethyl-4-nitroaniline ≥98.0% was purchased from Alfa Aeser. Cyrene was supplied by Circa group. N-butylpyrrolidinone was supplied by Eastman chemicals. N,N-dimethylformamide 99.9% and N,N-dimethylacetamide 99.9% were purchased from Fischer. The flakes of Ultrason® E3020 P Polyarylethersulfone of 55,000 Da were obtained from INGE.BASF, Germany. The CALUX cell lines have been described previously.[1] They are based on human U2-OS cells (ATCC, HTB-96) stably transfected with an expression construct for the full-length human receptor under investigation, and a reporter construct consisting of multimerized responsive elements for the cognate receptor coupled to a minimal promoter element (TATA) and a luciferase gene. Cells were maintained as described previously,[2] using cell culture media and supplements from Fisher Scientific as described in the experimental procedures section. […]
In vitro reporter gene assays
The automated CALUX assays were carried out similarly as described earlier,[12] with some adaptations. In brief, the assay was performed in CO2 independent medium (Fisher Scientific, […]
supplement (Fisher Scientific, 11574466), 10 U/mL penicillin and 10 µg/mL streptomycin. A cell suspension in assay medium was made of 1 × 10^5cells/mL, and white 384-wells plates were seeded with 30 µl cell suspension/well. After 24 h, exposure medium was prepared. A dilution series in 0.5log unit increments of each test compound (in DMSO) was added to a 96-wells plate containing assay medium (2% v/v). Of this exposure mixture, 30 µl was added to the assay plates containing the CALUX cells, resulting in a final DMSO concentration of 1%. Additionally, DMSO blanks and a full dose response curve of the relevant reference compound were included on each plate. All samples were tested in triplicate. The preparation of the compound dilution series as well as the exposure of the cells were performed on a Hamilton StarLET liquid handling robot coupled to a Cytomat incubator.
Directly after exposure, plates were sealed with non-breathing plate seals (Plate sealer, easy seal transparent; Greiner-Bio-One, 676001). After 24 h the exposure medium was removed using an EL406 washer-dispenser (BioTek) and 10 µl/well triton lysisbuffer was added by the EL406.
Subsequently, the luciferase signal was measured in a luminometer (InfinitePro coupled to a Connect Stacker, both TECAN). In order to be able to detect receptor antagonism, several assays were also performed in antagonistic mode. […]
The luminometer data was analysed as follows; the average of the triplicate wells was determined, and the average blank (DMSO) value was subtracted. […] For antagonist- and cytotoxicity experiments, PC20 values were determined instead, which was defined as the concentration where the test compound causes a 20% decrease in the basal signal, which was […]
curve, the signal induction above background (DMSO) was determined, and the concentration where the compound elicited a 1.5-fold increase above background was used as LEC.

LEC PPARγ | Structure (SMILES)
– | CCCCN(CC)C(=O)CCC(=O)N(CC)CCCC [EBSA, N,N′‐diethyl‐N,N′‐dibutylsuccindiamide]
– | CCCCN(C)C(=O)CCC(=O)N(C)CCCC [MBSA, N,N′‐dimethyl‐N,N′‐dibutylsuccindiamide]
– | CCCCN1CCCC1=O [NBP, N‐Butylpyrrolidinone, reference compound]
– | CN1CCCC1=O [NMP, N‐methyl‐2‐pyrrolidone, reference compound]
– | CCCCN(CCCC)C(=O)CCC(=O)N(CCCC)CCCC [TBSA, N,N,N′,N′‐tetrabutylsuccindiamide]
